# Test results published in ChEMBL document CHEMBL4616601, “Meeting organometallic chemistry with drug discovery: CH activation enabled discovery of a new ring system of 12H-Indazolo[2,1-a]cinnolin-12-ones with anti-proliferation activity” (Bioorg Med Chem Lett, 2020).
# pIC50: −log10 of the molar value. Calls of active or inactive are those of the source. The rule behind the calls is not given here.
# Legend:
# PC-3 [1] = assay: Antiproliferative activity against human PC3 cells assessed as inhibition of cell viability at 0.5 to 5 uM after 72 hrs by CCK8 assay; format: functional, cell-based
# PC-3 [2] = assay: Antiproliferative activity against human PC3 cells at 0.5 uM assessed as inhibition of cell viability after 72 hrs by CCK-8 assay relative to control; format: functional; conditions: PC-3, 72 h
# PANC-1 = assay: Antiproliferative activity against human PANC1 cells assessed as reduction in cell viability after 72 hrs; format: functional, cell-based; conditions: PANC-1, 72 h
# PC-3 [3] = assay: Antiproliferative activity against human PC3 cells assessed as reduction in cell viability after 72 hrs by CCK8 assay; format: functional, cell-based; conditions: PC-3, 72 h
Compound,Activity (PC-3 [1]),also measured
COC(=O)c1c(C)n2c3ccccc3c(=O)n2c2cc3ccccc3cc12,Active,–
COc1ccc2c(c1)c1c(n3c4ccccc4c(=O)n23)CCCC1=O,Active,–
CCOC(=O)c1c(-c2ccccc2)n2c3ccccc3c(=O)n2c2ccccc12,Active,–
O=C1CCc2c1c1ccccc1n1c(=O)c3ccccc3n21,Active,–
COC(=O)c1c(C)n2c3ccccc3c(=O)n2c2ccc(OC(F)(F)F)cc12,Active,–
CCOC(=O)c1c(-c2ccccc2)n2c3ccccc3c(=O)n2c2ccc3c(c12)OCO3,Active,inhibition at 0.5 µM (PC-3 [2]): 39.5%; pIC50 (PANC-1): < 4.30; pIC50 (PC-3 [3]): 5.23
COc1cc(OC)c2c3c(n4c5ccccc5c(=O)n4c2c1)CCC3=O,Active,–
CCOC(=O)c1c(-c2ccccc2)n2c3ccccc3c(=O)n2c2ccc(I)cc12,Active,–
CCOC(=O)c1c(-c2ccccc2)n2c3ccccc3c(=O)n2c2ccc(OC)cc12,Active,pIC50 (PANC-1): 5.37; pIC50 (PC-3 [3]): 5.70
CCOC(=O)c1c(C)n2c3ccccc3c(=O)n2c2ccc(Br)cc12,Active,–
CCOC(=O)c1c(C)n2c3ccccc3c(=O)n2c2ccc(OC)cc12,Active,–
CCc1c(C(=O)OC)c2ccccc2n2c(=O)c3ccccc3n12,inactive,–
CCOC(=O)c1c(C)n2c3ccccc3c(=O)n2c2c(OC)cccc12,Active,pIC50 (PANC-1): 6.94; pIC50 (PC-3 [3]): 6.67
CCOC(=O)c1c(-c2ccccc2)n2c3ccccc3c(=O)n2c2ccc(Br)cc12,Active,–
CCc1ccc2c(c1)c(C(=O)OC)c(C)n1c3ccccc3c(=O)n21,Active,–
CCOC(=O)c1c(-c2ccc(C)cc2)n2c3ccccc3c(=O)n2c2ccccc12,Active,–
CCOC(=O)c1c(C)n2c3ccccc3c(=O)n2c2ccc(Cl)cc12,Active,–
COC(=O)c1c(C)n2c3ccccc3c(=O)n2c2ccccc12,Active,pIC50 (PANC-1): 6.26; pIC50 (PC-3 [3]): 6.00
COC(=O)c1c(C)n2c3ccccc3c(=O)n2c2cc(OC)c(OC)c(OC)c12,Active,–

Compound,Activity (PC-3 [1]),also measured
COc1cc2c(c(OC)c1OC)c1c(n3c4ccccc4c(=O)n23)CCC1=O,Active,–
CCOC(=O)c1c(-c2ccccc2)n2c3ccccc3c(=O)n2c2ccc(Cl)cc12,Active,pIC50 (PANC-1): < 4.30; pIC50 (PC-3 [3]): < 4.30
CCOC(=O)c1c(-c2ccccc2)n2c3ccccc3c(=O)n2c2ccc(-c3ccccc3)cc12,Active,–
CCOC(=O)c1c(-c2cccc(OC)c2)n2c3ccccc3c(=O)n2c2ccccc12,Active,–
CCOC(=O)c1c(-c2ccco2)n2c3ccccc3c(=O)n2c2ccccc12,Active,–
CCOC(=O)c1c(-c2ccccc2)n2c3ccc(OC)cc3c(=O)n2c2ccccc12,Active,–
O=C1CCc2c1c1cc(Cl)ccc1n1c(=O)c3ccccc3n21,Active,–
CCOC(=O)c1c(-c2ccc(I)cc2)n2c3ccccc3c(=O)n2c2ccccc12,Active,pIC50 (PANC-1): 5.17; pIC50 (PC-3 [3]): 5.40
CCOC(=O)c1c(C)n2c3ccccc3c(=O)n2c2cc(OC)cc(OC)c12,Active,–
CCOC(=O)c1c(-c2ccccc2)n2c3ccccc3c(=O)n2c2cc(OC)cc(OC)c12,Active,–
CCOC(=O)c1c(-c2ccccc2)n2c3ccccc3c(=O)n2c2ccc(N3CCOCC3)cc12,Active,pIC50 (PANC-1): 4.86; pIC50 (PC-3 [3]): 5.13
COc1cccc2c3c(n4c5ccccc5c(=O)n4c12)CCC3=O,Active,–
CCOC(=O)c1c(-c2ccccc2)n2c3ccccc3c(=O)n2c2ccc(C)cc12,Active,–
CCOC(=O)c1c(-c2ccccc2)n2c3ccc(F)cc3c(=O)n2c2ccccc12,Active,–
COc1ccc2c(c1)c1c(n3c4ccccc4c(=O)n23)CCC1=O,Active,–
CCOC(=O)c1c(-c2ccc(F)cc2)n2c3ccccc3c(=O)n2c2ccccc12,Active,–
O=C1CCCc2c1c1ccccc1n1c(=O)c3ccccc3n21,Active,–
O=C1CCc2c1c1c3c(ccc1n1c(=O)c4ccccc4n21)OCO3,Active,–
CCOC(=O)c1c(-c2ccccc2)n2c3ccccc3c(=O)n2c2ccc(F)cc12,Active,–

Compound,Activity (PC-3 [1]),also measured
O=C1NCCc2c1c1ccccc1n1c(=O)c3ccccc3n21,Active,–
CCOC(=O)c1c(-c2ccccc2)n2c3ccccc3c(=O)n2c2ccc(C#N)cc12,Active,–
O=C1CCc2c1c1cc(I)ccc1n1c(=O)c3ccccc3n21,Active,–
CCOC(=O)c1c(C)n2c3ccccc3c(=O)n2c2ccccc12,Active,–
Cc1c(C(=O)OCCO)c2ccccc2n2c(=O)c3ccccc3n12,inactive,–
O=C(OCCO)c1c(-c2ccccc2)n2c3ccccc3c(=O)n2c2ccccc12,inactive,–
CCOC(=O)c1c(C)n2c3ccc(OC)cc3c(=O)n2c2ccccc12,Active,pIC50 (PANC-1): 6.30; pIC50 (PC-3 [3]): 6.32
COP(=O)(OC)c1c(C)n2c3ccccc3c(=O)n2c2ccccc12,inactive,–
O=C1CCCc2c1c1cc(F)ccc1n1c(=O)c3ccccc3n21,Active,–
O=C1CCc2c1c1cccc(F)c1n1c(=O)c3ccccc3n21,Active,–
CCOC(=O)c1c(C)n2c3ccccc3c(=O)n2c2ccc(I)cc12,Active,–
CCOC(=O)c1c(C)n2c3ccccc3c(=O)n2c2ccc(F)cc12,Active,–
COC(=O)c1c(C2CC2)n2c3ccccc3c(=O)n2c2ccccc12,inactive,–
O=C1CCc2c1c1cc(Br)ccc1n1c(=O)c3ccccc3n21,Active,–
CCOC(=O)c1c(C)n2c3ccccc3c(=O)n2c2ccc(C)cc12,Active,–
COC(=O)c1c(C)n2c3ccccc3c(=O)n2c2c(F)cccc12,Active,pIC50 (PANC-1): 6.28; pIC50 (PC-3 [3]): 6.48
CC(C)[C@]12O[C@H]1[C@@H]1O[C@@]13[C@@]1(C)CCC4=C(COC4=O)[C@@H]1C[C@@H]1O[C@@]13C2=O [TRIPTONIDE],–,pIC50 (PANC-1): 7.33; pIC50 (PC-3 [3]): 7.60
CCOC(=O)c1c(-c2ccc(OC)cc2)n2c3ccccc3c(=O)n2c2ccccc12,Active,–
